From patent US11351215B2, “Composition for preventing hair loss and stimulating hair-growth” (MOTHER″S PHARMACEUTICAL CO., LTD., priority 2018, dated 2022)
“And” between values parts separate entries of the source, which are not always exact repeats. Identical values can stand only once.

What was measured:
Assay type in all cases: in vivo, mouse
[1] = tested on: male C57BL/6 mice; experiment: Hair-growth efficacy test in catagen inhibition animal model, visual inspection with image analysis (Example 1-1); details: values of individual mice
Excerpt: (§1) To proceed with the hair-growth efficacy test in the catagen inhibition animal model of Centipeda minima extract, male C57BL/6 mice (5 weeks of age) were purchased and subjected to acclimation for 1 week and selected animals weighing 16 to 21 g. In the case of an animal in which skin damage occurred during hair removal, or if the skin color was black, the growth period was already in progress, so it was inappropriate for this experiment and was excluded from the experiment.
The test group was divided into a normal group, a negative control group, a test substance-administered group, and a positive control groups 1 and 2. Each of the normal group and the negative control group had 1 mouse, the test substance-administered group had 3 mice, and the positive control group 1 had two mice, and the positive control group 2 had one mouse. […]
Further, in order to quantify the results of hair-growth efficacy visual inspection, image analysis was performed on the entire epilation site (solvent or test substance, positive control substance application site) that is black (anagen) or a site where hair-growth begins. […] The result was quantified in %. […]

[2] = tested on: male C57BL/6 mice; experiment: Skin tissue pathology test, H&E staining (Example 1-2); details: H&E stained skin tissue after end of experiment
Protocol: (§2) The skin tissue pathology test was conducted by H&E staining using Hematoxylin and Eosin, which are generally used widely. A sample was collected from the skin tissue of the sacrificed animals and the generation of hair follicles and phenomena of hair-growth were identified through fixation, washing, clearing, paraffin infiltration, embedding, microtome cutting, staining and reading processes.
In this study, Anagen_Early (A/e) indicates the state in which hair has just begun to develop and Anagen_late (A/l) and Catagen_early (C/e) indicate that hair-growth is in full swing. Anagen_late and Catagen_early have histologically similar positions of the hair bulb. When considering morphological changes according to tissue sections, it is necessary to consider that it is often unclear to distinguish there between. Nevertheless, the hair follicles in the Anagen_late and Catagen_early stages are generally considered as similar stages of development, and the results are interpreted.

[3] = tested on: male C57BL/6 mice; experiment: Hair-growth efficacy test in catagen inhibition animal model, visual inspection, Centipeda minima extracts (Example 2-1); details: Day 5 after 7 days of administration (+12 day); topical 100 μL twice a day; dexamethasone-induced catagen
Excerpt: as §1, with “20” for “16”, “24” for “21”
The test group was divided into a normal group, a negative control group, a test substance-administered group, and a positive control groups 1 and 2. The normal group had three mice, the negative control group had 4 mice, the test substance-administered group had 4 mice, and the positive control group 1 (Tofacitinib) had four mice, and the positive control group 2 (Minoxidil) had four mice. […]
Further, to quantify the results of hair-growth efficacy visual inspection, a black portion (anagen) or a region where hair-growth begins in the entire hair removal site (solvent or test substance, positive control substance application site) was visually observed. […]

[4] = tested on: male C57BL/6 mice; experiment: Skin tissue pathology test, H&E staining (Example 2-2); details: H&E stained skin tissue, day 12
Protocol: as §2, with “conducted on day 12” for “conducted”, “widely used.” for “generally used widely.”

Molecule | hair-growth efficacy (image analysis of epilation site) ([1]; Day 17 after administration, 0.1% dexamethasone to maintain catagen) | tendency to migrate to anagen (black/hair-growth area of epilation site, image analysis) ([1]; on 3 days of administration, topical 100 μL twice a day, dexamethasone-induced catagen) | hair follicle generation and hair-growth efficacy (skin histology, FIG. 5) [2] | Hair-growth efficacy (%) [3] [%] | hair follicle generation and hair-growth efficacy (skin histology, FIG. 9) [4]
6-amino-1,2-dihydro-1-hydroxy-2-imino-4-phenoxypyrimidine [Minoxidil] | 6.1% and 21.2% | 0.1% and 0.3% | only minimal hair follicle generation and hair-growth efficacy degree | 45 | only minimal hair follicle generation and hair-growth efficacy degree
C[C@@H]1CCN(C(=O)CC#N)C[C@@H]1N(C)c1ncnc2[nH]ccc12 [Tofacitinib] | – | – | – | 25 | only minimal hair follicle generation and hair-growth efficacy degree
